In ChEMBL document CHEMBL1201862, “PubChem BioAssay data set” (2004):
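Growth conditions: 96-well plates. Treatment: test compound, 48 hours, 5 concentrations. Analysis: linear interpolation between bracketing concentrations; unreached endpoints set to highest concentration. GI50 is the concentration that inhibits growth by half.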 Active and inactive are the calls of the source. No stated cut-off is given here; in the data, active = GI50 up to about 1.1 µM and inactive = higher.

Tests used:
Test in all cases: inhibition of tumour cell growth, NCI panel, 48 h
U-251 = system: U-251
CAKI-1 = system: CAKI-1
DU-145 = system: DU-145
ACHN = system: ACHN
MDA-MB-231 = system: MDA-MB-231
RPMI-8226 = system: RPMI-8226
MDA-N = system: MDA-N
RXF 393 = system: RXF 393
A549 = system: A549
UACC-62 = system: UACC-62
SF-295 = system: SF-295
OVCAR-3 = system: OVCAR-3
OVCAR-8 = system: OVCAR-8
786-0 = system: 786-0
OVCAR-5 = system: OVCAR-5
SF-268 = system: SF-268
SNB-19 = system: SNB-19
HT-29 = system: HT-29
Malme-3M = system: Malme-3M
BT-549 = system: BT-549

Measured: GI50

Cc1nc2ccc(Cl)cc2c2c1CCN2c1ccc(F)cc1
inactive: U-251 45.8 µM | CAKI-1 18.4 µM | DU-145 58.3 µM | ACHN 17.7 µM | MDA-MB-231 7.48 µM | RPMI-8226 8.24 µM | MDA-N 7 µM | RXF 393 17.1 µM | A549 43.5 µM | UACC-62 15.2 µM | SF-295 82.8 µM | OVCAR-3 21.8 µM | OVCAR-8 22.5 µM | 786-0 11.8 µM | OVCAR-5 84.9 µM | SF-268 58.3 µM | SNB-19 33.1 µM | HT-29 4.94 µM | Malme-3M 24.8 µM

COC(=O)C1CCC2(CC1)NC(=O)NC2=O (centres undefined)
inactive: U-251 > 100 µM | CAKI-1 > 100 µM | ACHN > 100 µM | RPMI-8226 > 100 µM | RXF 393 > 100 µM | A549 > 100 µM | UACC-62 > 100 µM | SF-295 > 100 µM | OVCAR-3 > 100 µM | OVCAR-8 > 100 µM | 786-0 > 100 µM | OVCAR-5 > 100 µM | SF-268 > 100 µM | SNB-19 > 100 µM | HT-29 > 100 µM | Malme-3M > 100 µM

CCCCCCCCSC(SCCCCCCCC)=C1C(=O)N(c2ccccc2)N=C1C
inactive: U-251 17.5 µM | CAKI-1 26.9 µM | ACHN 35.2 µM | RPMI-8226 39.4 µM | RXF 393 53.5 µM | A549 26.8 µM | UACC-62 24.5 µM | SF-295 36.9 µM | OVCAR-3 29.4 µM | OVCAR-8 35.5 µM | 786-0 46.1 µM | OVCAR-5 80.4 µM | SF-268 > 100 µM | SNB-19 30.3 µM | HT-29 45.8 µM | Malme-3M 53.6 µM

COC(=O)/C=C\C1C(C(=O)OC)C2(C(=O)OC)CCC1(C(=O)OC)N2 (centres undefined)
inactive: U-251 18.5 µM | CAKI-1 2.88 µM | ACHN 9.33 µM | RPMI-8226 5.08 µM | RXF 393 7.21 µM | A549 20.4 µM | UACC-62 15.9 µM | SF-295 23.4 µM | OVCAR-3 15.3 µM | OVCAR-8 7.19 µM | 786-0 15.3 µM | OVCAR-5 20 µM | SF-268 23.8 µM | SNB-19 15.8 µM | HT-29 21.2 µM | Malme-3M 5.98 µM

COC(=O)/C(=C1\OC(=O)C(c2ccc(Cl)cc2)=C1O)c1ccc(Cl)cc1
inactive: U-251 24.3 µM | CAKI-1 23 µM | ACHN 23.2 µM | RPMI-8226 19.6 µM | RXF 393 21.5 µM | A549 24.8 µM | UACC-62 17.9 µM | SF-295 19.2 µM | OVCAR-3 27.8 µM | OVCAR-8 31.7 µM | 786-0 36.1 µM | OVCAR-5 31.5 µM | SF-268 22.3 µM | SNB-19 27.7 µM | HT-29 30 µM | Malme-3M 16.2 µM

C=CCOC(=O)Cn1cc(C)c(=O)[nH]c1=O
inactive: U-251 > 100 µM | CAKI-1 > 100 µM | DU-145 > 100 µM | ACHN > 100 µM | MDA-MB-231 > 100 µM | RPMI-8226 > 100 µM | MDA-N > 100 µM | A549 > 100 µM | UACC-62 > 100 µM | SF-295 > 100 µM | OVCAR-8 > 100 µM | 786-0 > 100 µM | SF-268 > 100 µM | SNB-19 > 100 µM | HT-29 > 100 µM | Malme-3M > 100 µM

CNC(=S)/C(C#N)=C(\N)N1CCCC1
inactive: U-251 > 100 µM | CAKI-1 > 100 µM | DU-145 > 100 µM | ACHN > 100 µM | MDA-MB-231 > 100 µM | RPMI-8226 > 100 µM | MDA-N > 100 µM | RXF 393 > 100 µM | A549 > 100 µM | UACC-62 > 100 µM | OVCAR-3 > 100 µM | OVCAR-8 > 100 µM | 786-0 > 100 µM | OVCAR-5 > 100 µM | SF-268 > 100 µM | SNB-19 > 100 µM | HT-29 > 100 µM | Malme-3M > 100 µM

COc1ccc2c(c1)CCN1CCCc3ccccc3C21 (centres undefined)
inactive: U-251 37.2 µM | CAKI-1 54.1 µM | DU-145 > 100 µM | ACHN 54.2 µM | MDA-MB-231 23.1 µM | RPMI-8226 22.3 µM | RXF 393 65.8 µM | A549 50.5 µM | UACC-62 31 µM | SF-295 26.4 µM | OVCAR-3 79.3 µM | OVCAR-8 91 µM | 786-0 38.4 µM | BT-549 28.1 µM | OVCAR-5 42.9 µM | SF-268 36 µM | SNB-19 94.6 µM | HT-29 28.2 µM

CC(C)[Si](CC1=CCCCC12C(=O)N(COCC[Si](C)(C)C)c1ccccc12)(C(C)C)C(C)C (centres undefined)
inactive: U-251 > 100 µM | CAKI-1 > 100 µM | DU-145 66.7 µM | ACHN > 100 µM | MDA-MB-231 > 100 µM | RPMI-8226 > 100 µM | MDA-N > 100 µM | RXF 393 20.6 µM | A549 > 100 µM | UACC-62 > 100 µM | SF-295 31.1 µM | OVCAR-3 39.4 µM | OVCAR-8 89.3 µM | 786-0 > 100 µM | OVCAR-5 27.2 µM | SF-268 > 100 µM | SNB-19 66.5 µM | HT-29 51.6 µM | Malme-3M > 100 µM

CC(NC(=O)N(C)C)NC(=O)N(C)C
inactive: U-251 > 10 µM | CAKI-1 > 10 µM | DU-145 > 10 µM | ACHN > 10 µM | MDA-MB-231 > 10 µM | RPMI-8226 > 10 µM | MDA-N > 10 µM | RXF 393 > 10 µM | A549 > 10 µM | UACC-62 > 10 µM | SF-295 > 10 µM | OVCAR-3 > 10 µM | OVCAR-8 > 10 µM | 786-0 > 10 µM | SF-268 > 10 µM | SNB-19 > 10 µM | HT-29 > 10 µM | Malme-3M > 10 µM

CC1CCC(C(C)C)C(O[C@@H]2OC(=O)C[C@@H]2Sc2ccccc2)C1 (some centres undefined)
inactive: U-251 > 10 µM | CAKI-1 23.3 µM | ACHN 20 µM | RPMI-8226 13.3 µM | RXF 393 13.4 µM | A549 24.9 µM | UACC-62 24.7 µM | SF-295 21.1 µM | OVCAR-3 14.5 µM | OVCAR-8 18.9 µM | 786-0 21 µM | OVCAR-5 43 µM | SF-268 24.4 µM | SNB-19 35.1 µM | HT-29 17.5 µM | Malme-3M 18.5 µM

CC(=O)OCC1OC(n2cnc3c(I)nc(I)nc32)C(OC(C)=O)C1OC(C)=O (centres undefined)
inactive: U-251 10.4 µM | CAKI-1 2.02 µM | ACHN 10 µM | RPMI-8226 10.9 µM | RXF 393 17.3 µM | A549 17.7 µM | UACC-62 13.6 µM | SF-295 20.5 µM | OVCAR-3 7.55 µM | OVCAR-8 10.3 µM | 786-0 14.3 µM | OVCAR-5 20.8 µM | SF-268 13.4 µM | SNB-19 12.5 µM | HT-29 6.4 µM | Malme-3M 18.7 µM
